Data on four molecules can be found in patent publication EP4491190A1, “SMALL PROTEINS FOR USE AS SENOLYTIC AND SENOMORPHIC AGENTS” (Fundación Imdea Alimentación, priority 2023, dated 2025).

Assay type in all cases: cell-based, human
The subject of test [1] is SKMel-103, A549, Huh7, SH-SY5Y cells. Kind of test: MTT cell viability in different models of cellular senescence and cancer cell lines. To be noted: senescent cancerous cell lines, senescence by doxorubicin, bleomycin or palbociclib. The method, then:
(§1) Cells were plated in 96 well plates at a density of 3×10^3-8×10^3 cells/well (proliferative) or 8×10^3-10×10^3 cells/well (senescent). An MTT assay (Sigma-Aldrich, Merck KGaA, Darmstadt, Germany) was used to measure cell viability after 48-96 h of treatments. Briefly, MTT was diluted in 0.1 M phosphate buffered saline (PBS) and added to cells grown in 96-well plates at a final concentration of 0.5 mg/ml. After incubation for 2-4 hr at 37°C with MTT, the culture medium was removed. The precipitated formazan was solubilized with dimethyl sulfoxide (DMSO). Absorbance was measured at 570 nm using a microplate reader (Victor Nivo; Perkin Elmer, Hamburg, Germany). For these assays, the effects of vehicle or treatments were expressed as the % of change of the non-treated cells.
Next, it was evaluated the senolytic capacity of Tvs1 in different models of cellular senescence and cancer cell lines. For that purpose, chemotherapy known to induce cellular senescence by genotoxic damage (doxorubicin and bleomycin) or by inhibiting cyclin-dependent kinases (palbociclib) was used. Cellular models of melanoma, lung adenocarcinoma (A549), hepatoma (Huh7) and neuroblastoma (SH-SY5Y) were used. Tvs1G consistently produced a senolytic effect in all the cancerous cell lines tested independently of the stimulus for achieving cellular senescence (Figure 2, Figures 4F, 4G, 4H). […]

Test [2] has as its system senescent HGPS skin fibroblast. Kind of test: Senolysis in HGPS skin fibroblasts (viability, β-galactosidase staining). The following applies: 48h. On the procedure: All human cancer cell lines and the non-transformed fibroblast lines were maintained in a humidified incubator at 37°C and 5% CO2 and used between passages 4 and 15. All lines were frequently checked and ensured to be mycoplasma free. Cells were split twice a week and before archiving an 90% confluency. SKMel103, SH-SY5Y, Huh7, A549, U251 were donated from collaborators or obtained from the Translational Venomics' stock. Primary lung fibroblasts (PCS201013) and primary dermal fibroblasts (PCS201012) were purchased from ATCC (Manassas, VA, USA). Skin fibroblasts from Hutchinson-Gilford progeria syndrome donors were purchase from the Progeria Research Foundation (HGADFN 127, 143, 167, 178) or Coriell Institute (AG01972E, AG06917K and AG11513F). The cells were maintained following the recommendations of the cell banks.
Cells were plated in 96 well plates at a density of 3×10^3-8×10^3 cells/well (proliferative) or 8×10^3-10×10^3 cells/well (senescent). An MTT assay (Sigma-Aldrich, Merck KGaA, Darmstadt, Germany) was used to measure cell viability after 48-96 h of treatments. […] Absorbance was measured at 570 nm using a microplate reader (Victor Nivo; Perkin Elmer, Hamburg, Germany). For these assays, the effects of vehicle or treatments were expressed as the % of change of the non-treated cells. […]

A further test has as its system SKMel-103 cells. Kind of test: MTT cell viability assay in proliferative and palbociclib-induced senescent SKMel-103 cells. On the procedure:
as §1
Therefore, the MTT assay was used to measure cell viability in proliferative and senescent cells. The model of cellular senescence induced by cyclin-dependent kinases (CDK) inhibition with Palbociclib (Baughn, L. B., et al. A Novel Orally Active Small Molecule Potently Induces G1 Arrest in Primary Myeloma Cells and Prevents Tumor Growth by Specific Inhibition of Cyclin-Dependent Kinase 4/6. Cancer Research (2006), 66(15), 7661-7667; Fry, D. W. et al. Specific inhibition of cyclin-dependent kinase 4/6 by PD 0332991 and associated antitumor activity in human tumor xenografts. Molecular Cancer Therapeutics, (2004) 3(11), 1427-1438) was used. Palbociclib is a CDK inhibitor, which promotes many markers of cellular senescence (Klein, M. E., et al. CDK4/6 Inhibitors: The Mechanism of Action May Not Be as Simple as Once Thought. Cancer Cell, (2018) 34(1), 9-20; Llanos, S., et al. Lysosomal trapping of palbociclib and its functional implications. Oncogene, (2019) 38(20), 3886-3902), including an enlarged and flattened cell shape and an enhanced senescence-associated β-galactosidase (SA-β-gal) activity (Figure 1A). Treatment with increasing concentrations of Tvs1 (0.1 nM to 3 µM) led to a dose-dependent reduction in viability of SKMel103 cells (Figure 1B). […]

`O=c1c(O)c(-c2ccc(O)c(O)c2)oc2cc(O)ccc12` [F, fisetin]: the senolytic effect result in test [1] is on record as “failed”.
Turning to `O=c1c(O)c(-c2ccc(O)c(O)c2)oc2cc(O)cc(O)c12` [Q, quercetin], the senolytic effect result in test [1] was “failed”.
On to `C[C@H]1O[C@@H](O[C@H]2[C@@H](O)C[C@H](O[C@H]3[C@@H](O)C[C@H](O[C@H]4CC[C@@]5(C)[C@H](CC[C@@H]6[C@@H]5C[C@@H](O)[C@]5(C)[C@@H](C7=CC(=O)OC7)CC[C@]65O)C4)O[C@@H]3C)O[C@@H]2C)C[C@H](O)[C@@H]1O` [digoxin], for which, in test [2], the senolysis / viability entry is “failed”. In the test with SKMel-103 cells (tested senescent melanoma cells), the senolytic effect entry is given as “not effective”.
In general, EC50 refers to the concentration needed to bring the measured effect to its halfway point. In the case of `CC1(C)CCC(c2ccc(Cl)cc2)=C(CN2CCN(c3ccc(C(=O)NS(=O)(=O)c4ccc(N[C@H](CCN5CCOCC5)CSc5ccccc5)c(S(=O)(=O)C(F)(F)F)c4)cc3)CC2)C1` [navitoclax], in test [2], the senolysis / viability entry is “failed”. For the same molecule, in the test with SKMel-103 cells (Homo sapiens, SK-MEL-103, palbociclib-induced senescent SKMel-103 cells, 48h treatment, read-out: EC50 (senolytic potency)), the EC50 stood at 400 nM. In addition, in the test on SKMel-103 cells (senolytic index, ratio of the IC50 in proliferative and senescent cells), the SI is on record as 22.
